The source of these data is PubChem BioAssay (NCI).

Structures are written as SMILES.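 Compound exposure: 48 hours, 5 concentrations, 96-well plates. TGI: concentration producing complete growth inhibition.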 Bounds are passed on as bounds.

One assay relates to OVCAR-8 ovarian. The assay is described as follows: inhibition of tumour cell growth, NCI panel, 48 h.
Regarding `O=C1NCCN1/N=C/c1c(Cl)n(-c2ccccc2)c2ccccc12`, the TGI came to 44.8 µM.

The molecule `CCCCCCOc1ccc(C(=O)NOC)cc1` displayed a TGI above 100 µM.

In the case of `Cc1c(S(=O)(=O)c2ccccc2)c(N)n(CCN(C)C)c1C`, the TGI is above 100 µM.

Molecule `N=C(N)SCc1ccc2c(c1)Sc1ccccc1O2` displayed a TGI of 32.5 µM.

The molecule `CC(=O)Nc1nc(C#N)[nH]c1C#N` gave a TGI above 100 µM.

`CN(C)c1ccc(C(=N/N=C2\C(=O)Nc3ccccc32)c2ccc(N(C)C)cc2)cc1` gave a TGI of 22.4 µM.

In turn, `COc1ccc(-c2nc(SCC(=O)N/N=C/c3ccc(N(C)C)cc3)[nH]c2-c2ccc(OC)cc2)cc1` showed a TGI above 100 µM.

Take `CC1=C[C@@H]2Cc3nc4cc(Cl)ccc4c(N)c3[C@H](C1)C2`: the TGI was determined as 38.9 µM.

For the molecule `c1c[nH]c(-c2ccc(-c3ccc[nH]3)c3nsnc23)c1`, the TGI is above 60.4 µM.

On to `CSC(=S)N(C)C`, for which the TGI is above 100 µM.

Molecule `COc1ccc2c(c1)OCC1Cc3ccccc3OC21` (centres undefined) registered a TGI above 100 µM.

Molecule `CCOC(=O)c1c(C)nc2c3ccccc3c(C#N)c(C)n12` had a TGI above 100 µM.

In the case of `CCCCC(C(=O)NCCNC(=O)CCC(=O)N(C)O)C(=O)NCCNC(=O)CCC(=O)N(C)O`, the TGI was above 100 µM.

Turning to `O=C(CC(C(=O)c1ccsc1)c1ccc2c(c1)OCO2)c1ccccc1` (centres undefined), the TGI was above 100 µM.

In the case of `CC1(C)C2CCC1(C)[C@H](n1c(=O)n([C@@H]3CC4CCC3(C)C4(C)C)c(=O)n([C@@H]3CC4CCC3(C)C4(C)C)c1=O)C2`, the TGI is above 100 µM.

In turn, `CSc1nsc(-c2ccccc2)[s+]1` gave a TGI above 100 µM.

Take `CC(=N/N=C/c1ccccn1)/C(C)=N/N=C(C)/C(C)=N/N=C(C)/C(C)=N/N=C(C)/C(C)=N\N=C\c1ccccn1`: the TGI is above 100 µM.

The subject of the next assay is U251 CNS. The assay is described as follows: inhibition of tumour cell growth, NCI panel, 48 h.
The molecule `CC1(C)CCCC2OC2CCC(C)(C)C1=O` (centres undefined) registered a TGI above 100 µM.

In the case of `O=C1NCC2(CCN(CCCC3(c4ccc(F)cc4)OCCO3)CC2)N1c1ccccc1`, the TGI is above 100 µM.

Molecule `COc1ccc2c(c1)/C(=C\c1c(Cl)nc3sc(C)cn13)C(=O)N2` returned a TGI of 11.6 µM.

Regarding `O=C1c2ccccc2-c2c1c(-c1ccc(F)cc1)nc1ccc3ccccc3c21`, the TGI is above 100 µM.

With `O=C(/C=C/c1ccc2c(c1)OCO2)CC(=O)C(=O)c1c[nH]c2ccccc12`, the TGI is above 100 µM.

With `O=C(Nc1nccs1)c1c(O)nc2sccn2c1=O`, the TGI is above 10 µM.

Molecule `O=c1[nH]c(=O)n(C2OC(CO)C(O)C2O)c2nc(-c3ccc(-c4ccccc4)cc3)cnc12` (centres undefined) registered a TGI above 100 µM.

The molecule `CC1=NN(c2cccc(Cl)c2)C2(SCC(=O)N2c2nc3ccccc3s2)/C1=C\c1ccccc1O` (centres undefined) came in with a TGI of 53.5 µM.

For `O=C1NCCN1/N=C/c1c(Cl)n(-c2ccccc2)c2ccccc12`, the TGI was determined as 58.3 µM.

As to `CCCCCCOc1ccc(C(=O)NOC)cc1`, the TGI is above 100 µM.

Turning to `Cc1c(S(=O)(=O)c2ccccc2)c(N)n(CCN(C)C)c1C`, the TGI is above 100 µM.

As to `N=C(N)SCc1ccc2c(c1)Sc1ccccc1O2`, the TGI was above 71.4 µM.

The molecule `CC(=O)Nc1nc(C#N)[nH]c1C#N` came in with a TGI above 100 µM.

In turn, `CN(C)c1ccc(C(=N/N=C2\C(=O)Nc3ccccc32)c2ccc(N(C)C)cc2)cc1` yielded a TGI of 15.5 µM.

In turn, `COc1ccc(-c2nc(SCC(=O)N/N=C/c3ccc(N(C)C)cc3)[nH]c2-c2ccc(OC)cc2)cc1` returned a TGI above 100 µM.

Turning to `CC1=C[C@@H]2Cc3nc4cc(Cl)ccc4c(N)c3[C@H](C1)C2`, the TGI was determined as 37.7 µM.

In turn, `O=[N+]([O-])C(/C=C(\Cl)n1nnc2ccccc21)=C(/Cl)n1nnc2ccccc21` returned a TGI above 100 µM.

In turn, `c1c[nH]c(-c2ccc(-c3ccc[nH]3)c3nsnc23)c1` displayed a TGI above 66.5 µM.

On to `CSC(=S)N(C)C`, for which the TGI was above 100 µM.

Molecule `COc1ccc2c(c1)OCC1Cc3ccccc3OC21` (centres undefined) gave a TGI above 10 µM.

Molecule `CCOC(=O)c1c(C)nc2c3ccccc3c(C#N)c(C)n12` registered a TGI above 100 µM.

With `CCCCC(C(=O)NCCNC(=O)CCC(=O)N(C)O)C(=O)NCCNC(=O)CCC(=O)N(C)O`, the TGI is above 100 µM.

`O=C(CC(C(=O)c1ccsc1)c1ccc2c(c1)OCO2)c1ccccc1` (centres undefined) displayed a TGI above 100 µM.

With `CC1(C)C2CCC1(C)[C@H](n1c(=O)n([C@@H]3CC4CCC3(C)C4(C)C)c(=O)n([C@@H]3CC4CCC3(C)C4(C)C)c1=O)C2`, the TGI was above 100 µM.

The molecule `CSc1nsc(-c2ccccc2)[s+]1` gave a TGI above 100 µM.

Molecule `CC(=N/N=C/c1ccccn1)/C(C)=N/N=C(C)/C(C)=N/N=C(C)/C(C)=N/N=C(C)/C(C)=N\N=C\c1ccccn1` came in with a TGI above 100 µM.

A further assay has as its system SF-539 CNS. The assay is described as follows: inhibition of tumour cell growth, NCI panel, 48 h.
`CC1(C)CCCC2OC2CCC(C)(C)C1=O` (centres undefined) yielded a TGI above 100 µM.

Turning to `O=C1NCC2(CCN(CCCC3(c4ccc(F)cc4)OCCO3)CC2)N1c1ccccc1`, the TGI is above 100 µM.

As to `COc1ccc2c(c1)/C(=C\c1c(Cl)nc3sc(C)cn13)C(=O)N2`, the TGI was 6.76 µM.

As for `O=C1c2ccccc2-c2c1c(-c1ccc(F)cc1)nc1ccc3ccccc3c21`, the TGI was above 100 µM.

Consider `O=C(/C=C/c1ccc2c(c1)OCO2)CC(=O)C(=O)c1c[nH]c2ccccc12`, for which the TGI was above 100 µM.

In turn, `O=C(Nc1nccs1)c1c(O)nc2sccn2c1=O` gave a TGI above 10 µM.

With `O=c1[nH]c(=O)n(C2OC(CO)C(O)C2O)c2nc(-c3ccc(-c4ccccc4)cc3)cnc12` (centres undefined), the TGI is above 100 µM.

As for `CC1=NN(c2cccc(Cl)c2)C2(SCC(=O)N2c2nc3ccccc3s2)/C1=C\c1ccccc1O` (centres undefined), the TGI is above 100 µM.

For the molecule `O=C1NCCN1/N=C/c1c(Cl)n(-c2ccccc2)c2ccccc12`, the TGI came to 33.7 µM.

Regarding `CCCCCCOc1ccc(C(=O)NOC)cc1`, the TGI was above 100 µM.

As for `Cc1c(S(=O)(=O)c2ccccc2)c(N)n(CCN(C)C)c1C`, the TGI is above 100 µM.

Turning to `N=C(N)SCc1ccc2c(c1)Sc1ccccc1O2`, the TGI is 7.79 µM.

`CC(=O)Nc1nc(C#N)[nH]c1C#N` showed a TGI above 100 µM.

In turn, `CN(C)c1ccc(C(=N/N=C2\C(=O)Nc3ccccc32)c2ccc(N(C)C)cc2)cc1` yielded a TGI of 3.72 µM.

`COc1ccc(-c2nc(SCC(=O)N/N=C/c3ccc(N(C)C)cc3)[nH]c2-c2ccc(OC)cc2)cc1` yielded a TGI above 100 µM.

On to `CC1=C[C@@H]2Cc3nc4cc(Cl)ccc4c(N)c3[C@H](C1)C2`, for which the TGI was 25.3 µM.

`O=[N+]([O-])C(/C=C(\Cl)n1nnc2ccccc21)=C(/Cl)n1nnc2ccccc21` returned a TGI above 100 µM.

With `c1c[nH]c(-c2ccc(-c3ccc[nH]3)c3nsnc23)c1`, the TGI is above 76.8 µM.

For the molecule `CSC(=S)N(C)C`, the TGI was above 100 µM.

With `COc1ccc2c(c1)OCC1Cc3ccccc3OC21` (centres undefined), the TGI is above 100 µM.

`CCOC(=O)c1c(C)nc2c3ccccc3c(C#N)c(C)n12` came in with a TGI above 100 µM.

As for `CCCCC(C(=O)NCCNC(=O)CCC(=O)N(C)O)C(=O)NCCNC(=O)CCC(=O)N(C)O`, the TGI was above 100 µM.

On to `O=C(CC(C(=O)c1ccsc1)c1ccc2c(c1)OCO2)c1ccccc1` (centres undefined), for which the TGI was above 100 µM.

In turn, `CC1(C)C2CCC1(C)[C@H](n1c(=O)n([C@@H]3CC4CCC3(C)C4(C)C)c(=O)n([C@@H]3CC4CCC3(C)C4(C)C)c1=O)C2` registered a TGI of 48.6 µM.

In turn, `CSc1nsc(-c2ccccc2)[s+]1` had a TGI above 100 µM.

`CC(=N/N=C/c1ccccn1)/C(C)=N/N=C(C)/C(C)=N/N=C(C)/C(C)=N/N=C(C)/C(C)=N\N=C\c1ccccn1` displayed a TGI above 100 µM.
